Laboratory results taken from patent US20220177511A1, “SERIES OF HALOGENATED TETRACYCLIC TRITERPENE DERIVATIVES AND THEIR PREPARATION AND APPLICATION” (SHANGHAI KING-X BIOTECH CO., LTD, priority 2019, published 2022).
Where two headings read alike, the source gives them in different places.

Tests used:
[1] = Pharmacokinetics of parent HHQ16 after single intragastric administration of compound 2 prodrugs in rats; type: in vivo, rat; settings: HHQ16 (parent) measured in rats after single intragastric 10 mg/kg of prodrug (dose converted to HHQ16)
Description: 1. The materials and methods for oral absorption test are the same as described in example 44.
The pharmacokinetic parameters of HHQ16 measured after a single intragastric administration of 10 mg/kg of compound 2 prodrug in rats are summarized in Table 2 below.
The half-life was prolonged to varying degrees.

[2] = Solubility test in water and FaSSIF; type: physicochemical; settings: 37° C., up to 24 hours
[3] = test system: chronic heart failure mice; experiment: Pharmacodynamic comparison of LCZ696 and compound 2 in chronic heart failure mice (echocardiography); type: in vivo
Text: With EF<50%, chronic heart failure mice were selected.
The mice were detected by cardiac ultrasound after 28 days of administration.

[4] = 100 mg/kg, after 28 days of administration
[5] = Positive control 1 (LCZ696, probably 60 mg/kg), Day 0
[6] = Positive control 1 (LCZ696, probably 60 mg/kg), Day 28
[7] = Positive control 2 (LCZ696, probably 100 mg/kg), Day 0
[8] = Positive control 2 (LCZ696, probably 100 mg/kg), Day 28
[9] = chronic heart failure mice (FIG. 9)

2-(((2aR,3R,4S,5aS,5bS,7S,7aR,11aR,12aS)-9,9-difluoro-4-hydroxy-3-((2S,5S)-5-(2-hydroxypropan-2-yl)-2-methyltetrahydrofuran-2-yl)-2a,5a,8,8-tetramethyltetradecahydro-1H,12H-cyclopenta[a]cyclopropa[e]phenanthren-7-yl)oxy)-N-methyl-2-oxoethan-1-aminium Chloride [Compound 2-6]
AUC0-t [1]: 3525 ng·h/mL
Cmax [1]: 433 ng/mL
t1/2 [1]: 4.2 h

3-(((2aR,3R,4S,5aS,5bS,7S,7aR,11aR,12aS)-9,9-difluoro-4-hydroxy-3-((2S,5S)-5-(2-hydroxypropan-2-yl)-2-methyltetrahydrofuran-2-yl)-2a,5a,8,8-tetramethyltetradecahydro-1H,12H-cyclopenta[a]cyclopropa[e]phenanthren-7-yl)oxy)-3-oxopropan-1-aminium Chloride [Compound 2-1]
AUC0-t [1]: 2955 ng·h/mL
Cmax [1]: 455 ng/mL
t1/2 [1]: 3.52 h

CC(C)(O)C1CCC(C)(C2C(O)CC3(C)C4CC(OP(=O)(O)O)C5C(C)(C)C(F)(F)CCC56CC46CCC23C)O1.N [Compound 3-2, Ammonium (2aR,3R,4S,5aS,5bS,7S,7aR,11aR,12aS)-9,9-difluoro-4-hydroxy-3-((2S,5S)-5-(2-hydroxypropan-2-yl)-2-methyltetrahydrofuran-2-yl)-2a,5a,8,8-tetramethyltetradecahydro-1H,12H-cyclopenta[a]cyclopropa[e]phenanthren-7-yl phosphate]
Solubility ([2]; FaSSIF (pH 6.5)): 22300 µg/mL
Solubility ([2]; Water): 12600 µg/mL

CC(C)(O)[C@@H]1CC[C@@](C)([C@H]2[C@@H](O)C[C@@]3(C)[C@@H]4C[C@H](OP(=O)(O)O)[C@H]5C(C)(C)C(F)(F)CC[C@@]56C[C@@]46CC[C@]23C)O1 [Compound 11, (2aR,3R,4S,5aS,5bS,7S,7aR,11aR,12aS)-9,9-difluoro-4-hydroxy-3-((2S,5S)-5-(2-hydroxypropan-2-yl)-2-methyltetrahydrofuran-2-yl)-2a,5a,8,8-tetramethyltetradecahydro-1H,12H-cyclopenta[a]cyclopropa[e]phenanthren-7-yl dihydrogen phosphate]
Solubility ([2]; thermodynamic from solid, FaSSIF (pH 6.5), read-out: Solubility): 3200 µg/mL
Solubility ([2]; thermodynamic from solid, Water, read-out: Solubility): 790 µg/mL

(S)-1-(((2aR,3R,4S,5aS,5bS,7S,7aR,11aR,12aS)-9,9-difluoro-4-hydroxy-3-((2S,5S)-5-(2-hydroxypropan-2-yl)-2-methyltetrahydrofuran-2-yl)-2a,5a,8,8-tetramethyltetradecahydro-1H,12H-cyclopenta[a]cyclopropa[e]phenanthren-7-yl)oxy)-1-oxopropan-2-aminium Chloride [Compound 2-17]
AUC0-t [1]: 5222 ng·h/mL
Cmax [1]: 501 ng/mL
t1/2 [1]: 7.8 h

sacubitril valsartan sodium [LCZ696]
left ventricular ejection fraction EF % increased by ([3]; 60 mg/kg, after 28 days of administration): 33.14%
FS % [3, 4]: significantly increased
left ventricular ejection fraction EF % increased by [3, 4]: 45.36%
CO [3, 5]: 30.83 ± 2.77 mL/min
EF [3, 5]: 23.49 ± 3.96%
FS [3, 5]: 9.31 ± 1.8%
HR [3, 5]: 575.58 ± 11.44 times/min
CO [3, 6]: 30.17 ± 1.85 mL/min
EF [3, 6]: 31.27 ± 5.36%
FS [3, 6]: 12.93 ± 2.66%
HR [3, 6]: 531.4 ± 19.6 times/min
CO [3, 7]: 35.4 ± 3.19 mL/min
EF [3, 7]: 22.89 ± 2.06%
FS [3, 7]: 9.24 ± 0.86 %
HR [3, 7]: 553.5 ± 10.76 times/min
CO [3, 8]: 39.02 ± 4.26 mL/min
EF [3, 8]: 34.72 ± 5.06%
FS [3, 8]: 14.76 ± 2.86%
HR [3, 8]: 550.17 ± 12.72 times/min
Cardiac output per minute (CO), day 28 vs day 0 (words) [3, 9]: not statistically significant
Heart rate (HR), day 28 vs day 0 [3, 9]: no significant change
EF, day 28 vs day 0 (words) ([3]; chronic heart failure mice, p<0.0005 (FIG. 8)): significantly increased
